From US20240174684A1, “INHIBITORS OF cGAS ACTIVITY AS THERAPEUTIC AGENTS” (BELLBROOK LABS, LLC, priority 2021, published 2024) come the findings set out here.

Where two headings read alike, the source gives them in different places. Some results are limits rather than exact numbers.

One series relates to MDR1 (P-glycoprotein). Kind of series: MDCK-MDR1 permeability A→B. It is filed as in vitro ADME, Canine. The note with it: dog; MDCK cells expressing human MDR1, A→B; read-out: MDCK-MDR Permeability A→B. Here is the method: (§1) ADME studies: Compound A and the compounds of the disclosure were tested for aqueous solubility (KSOL), metabolic stability (human and mouse […]) and permeability (Caco-2 and/or MDR1-MDCK cells) to provide an initial indication of oral bioavailability.
(§2) The favorable physicochemical properties are reflected in promising results in in vitro ADME tests. […] Metabolic stability, which was routinely measured with mouse and human hepatocytes, is outstanding, with t, greater than 2 hours for all of the compounds of the disclosure in which it has been measured. Cell permeability was measured using MDCK cells expressing human MDR1 (P-glycoprotein) to assess passive permeability as well as active transport out of the cell. […] Numerous compounds in Table 1 meet these permeability criteria, which is consistent with their design for TPSA <140 Å^2 and increased lipophilicity.
(§3) The MDCK-MDR1 permeability A ->B is shown in Table 2 below, where A represents 5-10 cm/s×10^−6; B represents 1-5 cm/s×10^−6; and C represents <1 cm/ss×10^−6. The metabolic stability half time, in both mouse and human hepatocytes, is also shown in Table 2 below, where A′ represents 100-200 minutes; B′ represents 200-300 minutes; and C′ represents >300 minutes.

The next series addresses cGAS (Homo sapiens, UniProt Q8N884). Put plainly: Transcreener cGAS enzymatic assay (FP). It counts as biochemical. Here is the method: Structural, biochemical and biophysical analysis and selectivity profiling: Potency and MOA studies, including Mn^2+ sensitivity, were performed using the Transcreener cGAS enzymatic assay, which is manufactured at BellBrook Labs (Fitchburg, Wisconsin, USA). This homogenous cGAS enzymatic assay was developed with fluorescence polarization (FP) and time-resolved Forster resonance energy transfer (TR-FRET) readouts, as described in International Patent Publication WO 2020/142729, incorporated by reference herein in its entirety. Plates are read on a PHERAstar FSX multimode reader (BMG). The compounds of the disclosure were tested for inhibition of cGAS ([…]) using this cGAS enzymatic assay under standard conditions (100 μM ATP and GTP, 62.5 nM bp ISD, 60 minute reactions), high ATP and GTP (1 mM) to mimic physiological conditions, in the presence of 200 μM MnCl2, and with mouse cGAS under standard conditions.
The IC50 values for FP under standard and under physiological conditions were determined for several exemplary compounds of the invention. The relative activities for FP Standard IC50 are shown in Table 2 below, where A represents <50 nM; B represents 50-100 nM; C represents 100-200 nM; D represents 200 nM-1μM; and E represents 1-10 μM. For the relative activities for FP Physiological IC50, A′ represents <200 nM; B′ represents 200-500 nM; C′ represents 500 nM-1μM; D′ represents 1-5 μM; and E′ represents >5 μM.

Series [1] deals with IFN-β production in PBMCs. Kind of series: IFNβ ELISA in human primary PBMCs. It counts as cell-based. To be noted: PBMC. An excerpt: (§4) Cellular assays: The human monocyte cell line THP-1 and human primary PBMCs were used to evaluate the cellular activity of compounds with good biochemical potency. These cells produce a robust cGAS/STING-dependent type I IFN response when stimulated with dsDNA and other pathogen-associated molecular patterns, which was detected using a standard ELISA for IFNβ (R&D Systems). The TBK1 inhibitor, BX-795, which acts downstream of cGAS/STING, was used as a probe.
(§5) The ICso values for IFNB ELISA stimulated with THP-1, PBMC, DNA, and cGAMP were determined for several exemplary compounds of the invention, and are provided in Table 3 where A represents <1 μM; B represents 1-2.5 μM; C represents 2.5-10 μM; D represents 10-20 μM; and E represents >20 μM.
The reporter gene assays were used to assess off-target activity with IRF30Luc (RIG-1) or NFKB (TLR4); CellTiter Glo (ATP levels) and Presto Blue (reducing equivalents) were used to assess cytotoxicity; all assays were performed in dose response mode. […] The inventors recently began using human PBMCs to assess cellular potency in a more physiologically relevant context.
(In an ELISA, binding on a coated surface is turned into a signal by an enzyme label.)

Series [2] concerns IFNβ production in THP-1 cells. Put plainly: IFNβ ELISA in THP-1 cells. It is filed as cell-based, human. To be noted: Homo sapiens; THP-1 cells.
Description: as §4
CETSA was also used to confirm that the compounds are binding to cGAS in cells; THP-1 cells are used for this analysis. Compounds were tested in dose response mode by incubating with cells for 1.5 hours at 37° C., followed by pelleting and re-suspending in PBS, heating to 51.5° C. for 3 min and cooling to room temp. Cells were then lysed, debris, including denatured cGAS, was pelleted and the supernatant was analyzed for soluble cGAS by Western Blot using anti-cGAS primary Ab (Cell Signaling). Band intensity was analyzed using Image J software. Stimulation with cGAMP directly activates STING, circumventing cGAS; this was used to determine if compounds had effects on downstream components of cGAS/STING signaling. The IFN-6 ELISA was used as the primary measure of cellular potency and selectivity (Table 3) and used the reporter gene assays for assessing off-target activity with other pattern recognition receptors.
as §5

The subject of series [3] is MDCK cells expressing human MDR1 (P-glycoprotein). Kind of series: MDCK-MDR1 permeability A→B. It counts as in vitro ADME, Canine. How it is done: as §1, §2, §3
Setting [4] is: high ATP and GTP (1 mM) to mimic physiological conditions, read-out: IC50 FP Physiological.
[5] abbreviates: standard conditions: 100 μM ATP and GTP, 62.5 nM bp ISD, 60 minute reactions, read-out: IC50 FP Standard.

Chain of cGAS (Q8N884 whole entry): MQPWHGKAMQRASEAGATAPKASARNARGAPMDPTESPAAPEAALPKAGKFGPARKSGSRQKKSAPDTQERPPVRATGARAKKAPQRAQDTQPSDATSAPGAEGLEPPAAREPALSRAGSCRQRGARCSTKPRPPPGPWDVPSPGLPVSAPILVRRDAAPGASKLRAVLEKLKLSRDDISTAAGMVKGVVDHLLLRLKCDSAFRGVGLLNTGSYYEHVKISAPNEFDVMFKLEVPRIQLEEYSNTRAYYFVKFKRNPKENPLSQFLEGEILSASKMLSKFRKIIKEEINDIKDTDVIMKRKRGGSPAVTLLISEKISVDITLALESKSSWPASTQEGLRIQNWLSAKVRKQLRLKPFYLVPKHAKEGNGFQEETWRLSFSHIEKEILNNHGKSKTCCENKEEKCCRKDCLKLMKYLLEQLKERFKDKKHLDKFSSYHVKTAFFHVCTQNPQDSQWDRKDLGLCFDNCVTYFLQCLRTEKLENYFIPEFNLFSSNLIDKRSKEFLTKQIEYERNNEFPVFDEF

As usually defined, the IC50 is the concentration that gives 50% inhibition. For the compound `Cc1nc(N2C[C@@H](CC(=O)Nc3ccc4cccnc4c3)C[C@H]2C(=O)O)c2oc3ccccc3c2n1` [Compound 35, (28,4R)-1-(2-methylbenzofuro[3,2-d]pyrimidin-4-yl)-4-(2-oxo-2-(quinolin-7-ylamino)ethyl)pyrrolidine-2-carboxylic acid], the Papp A→B in the series on MDR1 (P-glycoprotein) was 1 to 5 ×10⁻⁶ cm/s. Further, the IC50 on cGAS (setting [4]) is 0.5 to 1 µM; at cGAS (setting [5]), less than 0.05 µM; in series [1], 2.5 to 10 µM; in series [2], 2.5 to 10 µM.

For the compound `Cc1nc(N2C[C@@H](CC(=O)Nc3ccc(-c4ccc(N)nc4)cc3)C[C@H]2C(=O)O)c2oc3ccccc3c2n1` [Compound 40, (2S,4R)-4-(2-((4-(6-aminopyridin-3-yl)phenyl)amino)-2-oxoethyl)-1-(2-methylbenzofuro[3,2-d]pyrimidin-4-yl)pyrrolidine-2-carboxylic acid], the concentration for half-maximal inhibition (IC50) at cGAS (setting [4]) was 0.2 to 0.5 µM; on cGAS (setting [5]) it was less than 0.05 µM; in series [1], greater than 20 µM; in series [2], 10 to 20 µM.

For the compound `Cc1nc(N2C[C@@H](CC(=O)Nc3ccc(N4CCCCC4)cc3)C[C@H]2C(=O)O)c2oc3ccccc3c2n1` [Compound 7, (2S,4R)-1-(2-methylbenzofuro[3,2-d]pyrimidin-4-yl)-4-(2-oxo-2-((4-(piperidin-1-yl)phenyl)amino)ethyl)pyrrolidine-2-carboxylic acid], the Papp A→B in the series on MDR1 (P-glycoprotein) fell in the range of 1 to 5 ×10⁻⁶ cm/s. For the same compound, the IC50 is 1 to 5 µM on cGAS (setting [4]), 0.2 to 1 µM at cGAS (setting [5]), 10 to 20 µM in series [1] and 10 to 20 µM in series [2].

Take `Cc1nc(N2C[C@@H](CC(=O)Nc3ccc(-c4ccnc(N)c4)cc3)C[C@H]2C(=O)O)c2oc3ccccc3c2n1` [Compound 41, (28.4R)-4-(2-((4-(2-aminopyridin-4-yl)phenyl)amino)-2-oxoethyl)-1-(2-methylbenzofuro[3,2-d]pyrimidin-4-yl)pyrrolidine-2-carboxylic acid]: the IC50 was 0.5 to 1 µM on cGAS (setting [4]), 0.1 to 0.2 µM at cGAS (setting [5]), greater than 20 µM in series [1] and greater than 20 µM in series [2].

Consider `Cc1ccc(NC(=O)C[C@H]2C[C@@H](C(=O)O)N(c3nc(C)nc4c3oc3ccccc34)C2)cc1` [Compound 15, (2S,4R)-1-(2-methylbenzofuro[3,2-d]pyrimidin-4-yl)-4-(2-oxo-2-(p-tolylamino)ethyl)pyrrolidine-2-carboxylic acid], for which the Papp A→B with MDR1 (P-glycoprotein) is 1 to 5 ×10⁻⁶ cm/s. Also, the IC50 on cGAS (setting [4]) was 1 to 5 µM; at cGAS (setting [5]) it was 0.2 to 1 µM; in series [2], greater than 20 µM.

In the case of `Cc1nc(N2C[C@@H](CC(=O)Nc3ccc(-c4cccc(N)n4)cc3)C[C@H]2C(=O)O)c2oc3ccccc3c2n1` [Compound 42, (2S,4R)-4-(2-((4-(6-aminopyridin-2-yl)phenyl)amino)-2-oxoethyl)-1-(2-methylbenzofuro[3.2-d]pyrimidin-4-yl)pyrrolidine-2-carboxylic acid], the IC50 at cGAS (setting [4]) was 0.5 to 1 µM; on cGAS (setting [5]), 0.05 to 0.1 µM; in series [1] it was greater than 20 µM; in series [2], greater than 20 µM.

Regarding `Cc1nc(N2C[C@@H](CC(=O)Nc3cccc(C(F)(F)F)c3)C[C@H]2C(=O)O)c2oc3ccccc3c2n1` [Compound 25, (2S,4R)-1-(2-methylbenzofuro[3,2-d]pyrimidin-4-yl)-4-(2-oxo-2-((3-(trifluoromethyl)phenyl)amino)ethyl)pyrrolidine-2-carboxylic acid], the Papp A→B in the series on MDR1 (P-glycoprotein) is 1 to 5 ×10⁻⁶ cm/s. For the same compound, the IC50 was greater than 5 µM on cGAS (setting [4]), 0.2 to 1 µM at cGAS (setting [5]) and 10 to 20 µM in series [2].

For `Cc1nc(N2C[C@@H](CC(=O)Nc3ccc(-c4ccc5cn[nH]c5c4)cc3)C[C@H]2C(=O)O)c2oc3ccccc3c2n1` [Compound 39, (28.4R)-4-(2-((4-(1H-indazol-6-yl)phenyl)amino)-2-oxoethyl)-1-(2-methylbenzofuro[3,2-d]pyrimidin-4-yl)pyrrolidine-2-carboxylic acid], the IC50 is 0.5 to 1 µM at cGAS (setting [4]), 0.1 to 0.2 µM on cGAS (setting [5]), 2.5 to 10 µM in series [1] and 2.5 to 10 µM in series [2].

For the compound `Cc1nc(N2C[C@@H](CC(=O)Nc3ccc(-c4cccc(O)c4)cc3)C[C@H]2C(=O)O)c2oc3ccccc3c2n1` [Compound 51, (2S,4R)-4-(2-((3′-hydroxy-[1,1′-biphenyl]-4-yl)amino)-2-oxoethyl)-1-(2-methylbenzofuro[3,2-d]pyrimidin-4-yl)pyrrolidine-2-carboxylic acid], the IC50 at cGAS (setting [4]) was less than 0.2 µM; at cGAS (setting [5]), less than 0.05 µM; in series [1], greater than 20 µM; in series [2], 10 to 20 µM.

Take `Cc1nc(N2C[C@@H](CC(=O)Nc3ccccc3F)C[C@H]2C(=O)O)c2oc3ccccc3c2n1` [Compound 20, (2S,4R)-4-(2-((2-fluorophenyl)amino)-2-oxoethyl)-1-(2-methylbenzofuro[3,2-d]pyrimidin-4-yl)pyrrolidine-2-carboxylic acid]: the Papp A→B in the series with MDR1 (P-glycoprotein) was 1 to 5 ×10⁻⁶ cm/s. Moreover, the IC50 on cGAS (setting [4]) is greater than 5 µM; on cGAS (setting [5]), 0.2 to 1 µM; in series [2], greater than 20 µM.

In the case of `Cc1nc(N2C[C@@H](CC(=O)Nc3ccc(-c4cccnc4N)cc3)C[C@H]2C(=O)O)c2oc3ccccc3c2n1` [Compound 43, (28.4R)-4-(2-((4-(2-aminopyridin-3-yl)phenyl)amino)-2-oxoethyl)-1-(2-methylbenzofuro[3,2-d]pyrimidin-4-yl)pyrrolidine-2-carboxylic acid], the half-maximal inhibitory concentration (IC50) at cGAS (setting [4]) is 0.5 to 1 µM; at cGAS (setting [5]) it was 0.1 to 0.2 µM; in series [1] it was greater than 20 µM; in series [2] it was greater than 20 µM.

Turning to `COc1cccc(-c2ccc(NC(=O)C[C@H]3C[C@@H](C(=O)O)N(c4nc(C)nc5c4oc4ccccc45)C3)cc2)c1` [Compound 50, (2S,4R)-4-(2-((3′-methoxy-[1,1′-biphenyl]-4-yl)amino)-2-oxoethyl)-1-(2-methylbenzofuro[3,2-d]pyrimidin-4-yl)pyrrolidine-2-carboxylic acid], the Papp A→B in the series with MDR1 (P-glycoprotein) lay within 5 to 10 ×10⁻⁶ cm/s. Further, the IC50 is 0.2 to 0.5 µM at cGAS (setting [4]), less than 0.05 µM on cGAS (setting [5]) and less than 1 µM in series [2].

In the case of `Cc1nc(N2C[C@@H](CC(=O)Nc3ccc4cnccc4c3)C[C@H]2C(=O)O)c2oc3ccccc3c2n1` [Compound 33, (2S,4R)-4-(2-(isoquinolin-6-ylamino)-2-oxoethyl)-1-(2-methylbenzofuro[3,2-d]pyrimidin-4-yl)pyrrolidine-2-carboxylic acid], in series [3], the “MDCK-MDR Permeability A→B” value is “C (C represents <1 cm/ss×10^−6)”. Moreover, the 50% inhibitory concentration (IC50) lay in the range of 1 to 5 µM on cGAS (setting [4]), 0.1 to 0.2 µM at cGAS (setting [5]), 10 to 20 µM in series [1] and 2.5 to 10 µM in series [2].
